Series [1] relates to EAE mouse model. Kind of series: Efficacy EAE model, PLP139-151/CFA in SJL/L mice. It is filed as in vivo. The settings on record: daily 10 mg/Kg or 50 mg/Kg, until Day 57, vs vehicle. The procedure:
(§1) N=12 for all groups except for dexamethasone which had n=5 (FIG. 1B).
Eight-weeks old female SJL/L mice were immunized on Day 1 with an emulsion of PLP139-151/CFA and injected with pertussis toxin to induce disease. At the start of clinical signs (Days 9-10), the animals were administered with compound 6 (Glx-077) at a daily dose of 10 mg/Kg or 50 mg/Kg, or with a vehicle (15% HP-β-CD in water) until completion of trial (Day 57). A graph, summarizing the results of this experiment is represented in FIG. 1A.

The subject of series [2] is EAE mouse model. Put plainly: Efficacy EAE model, MOG35-55/CFA in C57B16 mice. It is filed as in vivo. The settings on record: daily 10 mg/Kg, until Day 28, vs vehicle. The procedure: as §1
Thirteen-weeks old female C57B16 mice were immunized on Day 1 with an emulsion of MOG35-55/CFA and injected with pertussis toxin to induce disease. At the start of clinical signs (Days 9-10), the animals were daily administered with Glx-077, Glx-088P3, clemastine fumarate (at 10 mg/Kg) or vehicle (15% HP-β-CD in water) until completion of experiment (Day 28). Mice administered with dexamethasone were used as a positive control group. Clinical score of the mice was measured daily. A graph, summarizing the results of this experiment is represented in FIG. 1B.

A further series deals with Gli1. Kind of series: Gli1-Luciferase Reporter Assay (Shh Light 2 cells). It is filed as cell-based, mouse. As for the experimental part:
Cell line: Shh Light 2 cell line which is based on NIH3T3 mouse fibroblast cell line genetically modified to stably express the Firefly Luciferase reporter gene under the transcription control of Gli 1 binding sequence and the Renila Luciferase gene under a control pRL-SV40 promoter was licensed from Johns Hopkins University (JHU).
Cell culture: Cells are cultured in Complete Medium [formulated as DMEM, 10% FBS, 1% sodium pyruvate, 1% L-glutamine, 0.4 mg/ml G418, 0.15 mg/ml Zeocin] until 80% confluence is achieved. Once sufficient confluency is achieved, cells are detached from the 10 cm culture dish using trypsin-EDTA, washed in Growth Medium [formulated as DMEM, 10% FBS, 1% sodium pyruvate, 1% L-glutamine, 1% PenStrep] and resuspended in fresh Growth Medium at a concentration of 4.3*10^5 cells/ml. To a white 96-well plate […] of cells suspension is transferred and incubated in a humified incubator at 37° C. with 5% CO2 overnight until the cells reach confluency the following day.
On the following day, a 13 point 1:1 dilution of a stock 20 mM Gli 1 inhibitor compound in DMSO is performed and […] of each diluted Gli1 inhibitor compound is diluted in […] Assay Medium [formulated as DMEM, 2% FBS, 1% sodium pyruvate, 1% L-glutamine, 1% PenStrep]. The Growth Medium is removed from the cell-plated 96-well plate and […] of the diluted Gli1 inhibitor is transferred to each well and plates are incubated at 37° C. and 5% CO2 for 30 minutes.
Then, the plates are removed from incubator and Purmorphamine (a Smoothened agonist to induce Hedgehog signaling and Gli1 activation in cells) at a final concentration of […] is added to each well and the plates are reinserted to the incubator for 24 hours incubation. The following day, Firefly and Renila Luciferase levels are measured using the Dual-Glo Luciferase system and the ratio between the Firefly and Renila is calculated for normalization of signal. The ratio of the signal in the treated cells is plotted vs. compound concentration and the IC50 value of each compound is calculated by generating a non-linear regression curve using the 4PL function in GraphPad Prism 8 software.
The primary screening assay is based on a NIH3T3 mouse fibroblast cell line genetically modified to stably express the Firefly Luciferase reporter gene under the transcription control of Gli1 binding sequence and the Renila Luciferase gene under a control pRL-SV40 promoter. This assay allows the determination of a compound's IC50 value in inhibiting Gli1 activity.
Background: In a reporter assay the amount or activity of a reporter protein is the signal.

A further series is described as follows: Pharmacokinetic Study. The settings on record: for Cmax: in ng/mL (unit assumed). It is filed as in vivo. As for the experimental part: Compounds were formulated in 15% HP-b-CD in water (IV formulation was at pH=5.0 and PO was at pH=3.0). Blood was obtained from facial vein pre-dosing and at 0.083, 0.25, 0.5, 1, 2, 4, 8, 24 hours post dosing for a total of 9 time-points, semi-serial bleeding. For PO dosing, another group of animals (n=3) were terminated at 2 hours post dosing and brains were extracted to analyze brain exposure and calculate brain/plasma ratio. Lower limit of quantification (LLOQ) for brain and plasma samples was 1 ng/ml.

Setting [3] is: Mus musculus, Shh Light2, in-vitro, read-out: concentration inhibiting 50% of Gli1 activity.
The mark [4] stands for this setting: Shh Light 2 cell line, Purmorphamine-induced, 24 hours, read-out: Luciferase cell based IC50.
[5] abbreviates: Mus musculus, Shh Light2, Shh Light 2 cell line, Purmorphamine-induced, 24 hours, read-out: Luciferase cell based IC50.

The results in this text go back to US20230242511A1, “FUSED PYRAZOLE AND IMIDAZOLE BASED COMPOUNDS AND USE THEREOF AS GLI1 INHIBITORS” (GLIXOGEN THERAPEUTICS LTD., priority 2020, published 2023).

Where two headings read alike, the source gives them in different places. Where only a bound is given, the exact number is not on record here.

As for `Cn1c(-c2ccccc2Cl)nc2c1CN(Cc1nc3cccnc3o1)CC2` [Compound 6], the “clinical outcome (FIG. 1A)” value in the series on EAE mouse model [1] was “improvements in clinical outcome”. The “clinical outcome / clinical score (FIG. 1B)” value in the series with EAE mouse model [2] was “improvements in clinical outcome”.
Take `Cn1c(-c2ccccc2Cl)nc2c1CN(Cc1cnc3ccccc3n1)CC2` [Compound 11]: in the series with Gli1 (setting [3]), the IC50 was less than 17 nM.
Take `Cc1nc(CN2CCc3nc(-c4ccccc4Cl)n(C)c3C2)nc2ccccc12` [Compound 12]: in the series on Gli1 (Mus musculus, Shh Light2, benzyl series compounds, read-out: in-vitro efficacy IC50), the IC50 was 5.6 nM.
As for `Cn1c(-c2ccccc2Cl)nc2c1CN(Cc1ncnc3ccccc13)CC2` [Compound 13], in the series on Gli1 (setting [3]), the IC50 was less than 17 nM.
Still for that read-out and setting: the value for `Cn1c(-c2ccccc2Cl)nc2c1CN(Cc1nc3ccccc3s1)CC2` [Compound 14] was less than 17 nM.
Consider `COc1cccc2c1CN(C1CCc3nn(-c4ccccc4Cl)c(C)c3C1)C2` (centres unmarked) [Glx-088P3], for which the “clinical outcome / clinical score (FIG. 1B)” value in the series with EAE mouse model [2] was “improvements in clinical outcome”. In the series on Gli1 (setting [4]), the IC50 was found to be 0.18 nM. In “Pharmacokinetic Study” (IV, 2 mg/Kg), the AUCINF-plasma came out at 517 ng·h/mL and the T½ was 1.53 h. In the series “Pharmacokinetic Study” (PO, 10 mg/Kg), the “% F” value stood at 38%, the AUCINF-plasma came to 517 ng·h/mL, the T½ was 1.5 h and the “Brain levels 2 h post PO administration” value amounted to 123 ng/g. In addition, in “Pharmacokinetic Study” (PO, 10 mg/Kg), the “Brain/plasma ratio (2 h)” value came out at 208% and the Cmax turned out to be 268. In the series “Pharmacokinetic Study” (PO, 30 mg/Kg), the “% F” value is reported as 65.6%, the AUCINF-plasma stood at 2674 ng·h/mL, the T½ was 1.69 h and the “Brain levels 2 h post PO administration” value amounted to 1104 ng/g. Further, in the series “Pharmacokinetic Study” (PO, 30 mg/Kg), the “Brain/plasma ratio (2 h)” value was 236% and the Cmax was 1199.
For the molecule `COc1cccc2c1CN(C1CCc3nn(-c4ccccc4Cl)c(C)c3C1)C2` (centres unmarked) [Glx-088RS], in the series with Gli1 (setting [4]), the IC50 is 7.1 nM. Moreover, in “Pharmacokinetic Study” (PO, 10 mg/Kg), the AUCINF-plasma stood at 748 ng·h/mL, the T½ is 1.99 h, the “Brain levels 2 h post PO administration” value stood at 211 ng/g and the “Brain/plasma ratio (2 h)” value stood at 129%. The molecule further came in with a Cmax in “Pharmacokinetic Study” (PO, 10 mg/Kg) of 698.
In the case of `Cc1c2c(nn1-c1ccccc1Cl)CCC(N1Cc3c(F)ccc(C#N)c3C1)C2` (centres unmarked) [Glx-308], the IC50 in the series with Gli1 (setting [5]) amounted to 55 nM.
Turning to `Cc1c2c(nn1-c1ccccc1Cl)CCC(N1Cc3cccc(C#N)c3C1)C2` (centres unmarked) [Glx-322], the IC50 in the series on Gli1 (setting [5]) was 12 nM.
Turning to `COc1ccc(C#N)c2c1CN(C1CCc3nn(-c4ccccc4Cl)c(C)c3C1)C2` (centres unmarked) [Glx-341], in the series on Gli1 (setting [5]), the IC50 was determined as 16.7 nM.
On the same count and under the same terms, the value for `COc1cccc2c1CN([C@H]1CCc3nn(-c4ccccc4Cl)c(C)c3[C@@H]1O)C2` [Glx-344A] was 172 nM; that for `COc1cccc2c1CN(C1CCc3nn(-c4ccccc4Cl)c(C)c3[C@@H]1O)C2` (some centres unmarked) [Glx-344] was 385 nM.
On the same count and under the same terms, for `COc1cccc2c1CC(N1CCc3nn(-c4ccccc4Cl)c(C)c3C1)C2` (centres unmarked) [Glx-369] the value was 73 nM; for `COc1cccc2c1CN(C1CCc3nn(-c4ccccc4Cl)c(C)c3C1=O)C2` (centres unmarked) [Glx-402], 430 nM.
